In patent US20250051293A1, “NOVEL OXADIAZOLE DERIVATIVE AND USE THEREOF” (CELROS BIOTECH, priority 2021, published 2025):

Experiments:
[1] = Cytotoxicity experiment (MTT assay) HepG2; format: cell-based; settings: human, HepG2 cells
Experimental: (§1) HepG2 (human hepatocellular carcinoma) and HT-22 (mouse hippocampal neuronal cell line) were seeded at densities of 1×10^5 or 1.5×10^4 per well in a 48-well plate and incubated for at least 12 hours, then treated with compounds of Example 1 and Example 2 at various concentrations (0 nM, 1 nM, 10 nM, 100 nM, 1000 nM, 10000 nM, 100000 nM, and 1000000 nM) and incubated for 24 hours. MTT solution (Thiazolyl Blue Tetrazolium Bromide 2 mg/ml) was subsequently added at 30 μl per well. After incubation for 4 hours, the culture medium containing the MTT solution was removed and 300 μl of DMSO was added to dissolve the MTT-formazan. 100 μl of the solution in each well was transferred to a 96-well plate and the absorbance was measured at 570 nm. IC50 values were calculated with Graph-Pad Prism 5 (GraphPad Software). The cell viability of the groups treated with the compounds of Example 1 and Example 2 at each concentration was determined relative to control group in which HepG2 cells were treated with DMSO alone, in at least five replicates.

[2] = Cytotoxicity experiment (MTT assay) HT-22; format: cell-based; settings: mouse, HT-22 cells
Experimental: as §1

[3] = system: MPTP-induced Parkinson's disease; test: MPTP-induced Parkinson's disease mouse model; format: in vivo, mice; settings: for MPTP-induced increase in number of microglia (Iba1+ cells) in the substantia nigra and striatum / density of Th+ fibers in the striatum / number of dopaminergic neurons (Th+ cells) in the substantia nigra: 30 mg/kg oral for 8 days; for density of Th+ fibers in the striatum / number of dopaminergic neurons (Th+ cells) in the substantia nigra / pole test T-total / pole test T-turn: compared to the vehicle-treated group; for pole test T-total / pole test T-turn: Day 6 after MPTP, 30 mg/kg oral
Experimental: To evaluate the effect of compounds of Example 1 and Example 2 on MPTP (1-methyl-4-phenyl-1,2,3,6-tetrahydropyridine hydrochloride; Sigma-Aldrich)-induced Parkinson's disease, C57BL/6 male mice (9 weeks old) were randomly divided into three groups. • saline+vehicle • MPTP+vehicle • MPTP+compound of Example 1 or […] (30 mg/kg)
To induce Parkinson's disease, mice were intraperitoneally injected with MPTP (25 mg/kg) four times at 2-hour intervals, while control mice were treated with an equal volume of saline. The compounds of Example 1 or Example 2 were dissolved in a solvent consisting of 10% DMAC (dimethyl acetamide, Sigma-Aldrich), 10% Tween 80 (Sigma-Aldrich) and 80% saline (JW Pharmaceuticals). Mice were orally administered with 30 mg/kg of the compound of Example 1 or Example 2 starting 1 day prior to MPTP injection for 8 days.
Seven days after MPTP administration (one day after the last administration of the compound of Example 1 or Example 2), experimental animals were sacrificed by perfusion with saline (JW Pharmaceuticals) followed by 10% formalin (Sigma-Aldrich), and brain tissues were obtained. The tissues were cut into 30 μm thick slices using a cryostat (Leica) and stored in an anti-freezing solution (30% sucrose, 1% polyvinylpyrrolidone, and 30% ethylene glycol in 1×PBS) at −20° C.
Anti-tyrosine hydroxylase antibody (1:2000-4000, ABCAOM) was used to detect dopaminergic neurons and anti-Iba1 antibody (1:1000, Wako) was used to measure microglia. Biotinylated goat anti-rabbit antibody (VECTOR, BA-1000) was used as a secondary antibody and ABC solution (VECTOR, BA-1000) was used. The immunoreactive sections were then incubated with 3-3′ diaminobenzidine (DAB, Dako) to change the color to brown.
For the substantia nigra, six coronal sections, one every 150 μm, between −2.80 mm and −3.80 mm bregma were used, and for the striatum, three coronal sections between +0.98 mm and +0.50 mm bregma were collected. The coronal sections were stained with anti-tyrosine hydroxylase antibody or anti-Iba1 antibody and then analyzed by counting the number of stained cells or using ImagePro plus 7.0 software.
The mice were moved to a home cage where they were placed head up in the top of a 60 cm vertical pole with a diameter of 1 cm, and were then allowed to descend themselves and stay for about 15 seconds in the home cage.
The above procedure was repeated three times, all of which were videotaped, and the time for the mouse's head to turn completely downward (T-turn) and total time to descend to the floor (T-total) were analyzed.

PAMPA-BBB assay = format: in vitro ADME; settings: incubation 4 hr, pH 7.4, 25° C., U.V, read-out: Permeability Pe
Experimental: The parallel artificial membrane permeability assay (PAMPA) was performed to determine the brain barrier blood (BBB) permeability. […] For the Blank measurement, the donor buffer was dispensed into a high sensitivity UV plate at 150 μl per well and the UV values were measured (Blank sample). For the initial value measurement, the mixture in the deep well plate was dispensed 150 μl per well into the UV plate and the UV values were measured (initial sample). Next, 200 μl of the test compound mixture was dispensed onto the donor plate of the PAMPA sandwich, and the acceptor plate of the PAMPA sandwich was inverted and the membrane was coated with 5 μl of BBB-lipid solution. Then, 200 μl of acceptor sink buffer was added to each well of the acceptor plate, and the acceptor plate and donor plate were combined and incubated at 25° C. for 4 hours. […] Finally, the permeability (Pe(10^−6 cm/sec)) was analyzed using the PAMPA explore program. The experiment was performed in three replicates. The permeability of the material was analyzed by UV measurement and LC-MS/MS, the specific conditions of which are described below.

Row | SMILES | IC50 at 24 h [1] [µM] | IC50 at 24 h [2] [µM] | MPTP-induced increase in number of microglia (Iba1+ cells) in the substantia nigra and striatum [3] | density of Th+ fibers in the striatum [3] | number of dopaminergic neurons (Th+ cells) in the substantia nigra [3] | pole test T-total [3] | pole test T-turn [3] | Papp at 4 h, 50 μM (PAMPA-BBB assay; 50 μM) [nm/s] | Papp at 4 h, 10 μM (PAMPA-BBB assay; 10 μM) [nm/s]
1 | O=C(Nc1nnc(-c2cccc(Cl)c2)o1)c1cc(F)cc(C(F)(F)F)c1 [Example 1, N-(5-(3-chlorophenyl)-1,3,4-oxadiazol-2-yl)-3-fluoro-5-(trifluoromethyl)benzamide] | 4.2 | 2 | effectively reduced | higher | higher | significant decrease | decrease | > 4 | 
2 | O=C(Nc1nnc(-c2ccccc2)o1)c1ccc(F)c(C(F)(F)F)c1 [Example 2, 4-fluoro-N-(5-phenyl-1,3,4-oxadiazol-2-yl)-3-(trifluoromethyl)benzamide] | 1100 | 5.5 | effectively reduced | higher | higher | significant decrease | decrease |  | > 4
